In article PMC10150366, “Discovery of an In Vivo Chemical Probe for BCL6 Inhibition by Optimization of Tricyclic Quinolinones” (Journal of Medicinal Chemistry, 2023):
Where two headings read alike, the source gives them in different places.

Legend:
[1] = target: INSR (Homo sapiens, UniProt P06213); assay: SAFETYscan Kinases Binding INSR Inhibitor
Text: (§1) Supplement jm3c00155_si_002.xlsx, sheet "SAFETYScan" | column: RC50 (uM); Max Response

[2] = target: T1, AVPR1A (Homo sapiens, UniProt P37288); assay: SAFETYscan Calcium Flux AVPR1A Antagonist; type: cell-based
T1 sequence (P37288 whole entry): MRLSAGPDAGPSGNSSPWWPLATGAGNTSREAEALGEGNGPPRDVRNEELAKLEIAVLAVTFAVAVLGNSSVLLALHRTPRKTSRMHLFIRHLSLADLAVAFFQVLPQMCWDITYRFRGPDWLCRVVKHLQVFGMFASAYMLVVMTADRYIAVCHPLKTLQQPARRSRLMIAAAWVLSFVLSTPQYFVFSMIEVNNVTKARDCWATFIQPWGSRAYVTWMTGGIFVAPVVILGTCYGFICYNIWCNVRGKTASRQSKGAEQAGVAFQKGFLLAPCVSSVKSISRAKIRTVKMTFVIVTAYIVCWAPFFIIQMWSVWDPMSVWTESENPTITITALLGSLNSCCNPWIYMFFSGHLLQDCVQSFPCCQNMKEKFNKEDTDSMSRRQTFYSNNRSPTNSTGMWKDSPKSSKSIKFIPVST
Text: as §1

[3] = target: ADORA2A (Homo sapiens, UniProt P29274); assay: SAFETYscan Calcium Flux ADORA2A Agonist; type: cell-based
ADORA2A, sequence (P29274 whole entry): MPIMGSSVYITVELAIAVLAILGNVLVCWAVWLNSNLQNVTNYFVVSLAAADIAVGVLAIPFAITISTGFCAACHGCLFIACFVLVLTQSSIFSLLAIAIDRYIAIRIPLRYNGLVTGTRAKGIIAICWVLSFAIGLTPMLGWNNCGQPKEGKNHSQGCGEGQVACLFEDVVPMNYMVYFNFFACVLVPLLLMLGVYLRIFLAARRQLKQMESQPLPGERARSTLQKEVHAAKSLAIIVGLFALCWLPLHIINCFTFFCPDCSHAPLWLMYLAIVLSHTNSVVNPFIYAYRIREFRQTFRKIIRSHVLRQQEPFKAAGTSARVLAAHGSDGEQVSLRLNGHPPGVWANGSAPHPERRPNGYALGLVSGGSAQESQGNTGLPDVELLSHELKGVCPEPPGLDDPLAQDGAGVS
Text: as §1

[4] = target: T2, ADRA1A (Homo sapiens, UniProt P35348); assay: SAFETYscan Calcium Flux ADRA1A Antagonist; type: cell-based
T2 sequence (P35348 1-466): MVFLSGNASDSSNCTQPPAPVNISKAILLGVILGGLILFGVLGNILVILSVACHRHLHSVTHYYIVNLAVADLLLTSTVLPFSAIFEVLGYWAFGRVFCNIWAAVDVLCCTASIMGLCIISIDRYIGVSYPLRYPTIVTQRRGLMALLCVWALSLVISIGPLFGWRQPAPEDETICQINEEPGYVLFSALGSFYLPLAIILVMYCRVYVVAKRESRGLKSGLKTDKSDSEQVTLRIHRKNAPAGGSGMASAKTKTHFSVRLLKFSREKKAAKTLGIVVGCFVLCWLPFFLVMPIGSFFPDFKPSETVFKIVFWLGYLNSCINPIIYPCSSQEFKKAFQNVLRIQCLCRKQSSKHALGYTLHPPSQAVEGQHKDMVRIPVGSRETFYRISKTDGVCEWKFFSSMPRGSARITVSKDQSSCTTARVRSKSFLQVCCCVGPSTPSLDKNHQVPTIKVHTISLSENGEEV
Text: as §1

[5] = target: T1, AVPR1A; assay: SAFETYscan Calcium Flux AVPR1A Agonist; type: cell-based
Text: as §1

[6] = target: human BCL6 BTB domain (Homo sapiens, UniProt P41182); assay: BCL6 TR-FRET assay; type: binding
Procedure: 1. Supplementary experimental: protein production, purification and crystallography 1.1 BCL6 constructs used for assays and crystallography […]
cleavage site. For the TR-FRET assay, the Trx-6His-HRV3C-BCL6 protein construct was used without cleaving the tag, as a 6His was needed to bind to the anti-6His-Terbium antibody. […]
For both plasmid constructs described above, transformed BL21-AI E. coli cells were grown in LB media […]
Expression was carried out at 18 °C for 18 hours. Cells were harvested by centrifugation (5500 g for 30 minutes at 4 °C) and stored at -80 °C.
Cells were re-suspended in a buffer composed of 20 mM Tris pH 8, 250 mM NaCl, 1 mM MgCl2, 0.5 mM […]
lysed by sonication followed by centrifugation at 21,000 g for 45 minutes at 4 °C. […]
ResourceQ and gel filtration using a HiLoad 26/60 Superdex75 column in a buffer containing 20 mM HEPES […]
The final protein was assessed for purity and molar mass by SDS-PAGE and high-resolution mass spectrometry, respectively.
For the uncleaved Trx-6His-HRV3C-BCL6 protein construct to be used in TR-FRET, the protein was directly eluted from the HisTrap FF column without HRV-3C treatment, and submitted to Superdex75 gel filtration […]
Test compounds in DMSO or DMSO alone […]
concentration in 0.7% v/v DMSO final. […]

[7] = target: AChE (Homo sapiens, UniProt P22303); assay: SAFETYscan Enzymatic AChE Inhibitor; type: biochemical
AChE, sequence (P22303 32-614): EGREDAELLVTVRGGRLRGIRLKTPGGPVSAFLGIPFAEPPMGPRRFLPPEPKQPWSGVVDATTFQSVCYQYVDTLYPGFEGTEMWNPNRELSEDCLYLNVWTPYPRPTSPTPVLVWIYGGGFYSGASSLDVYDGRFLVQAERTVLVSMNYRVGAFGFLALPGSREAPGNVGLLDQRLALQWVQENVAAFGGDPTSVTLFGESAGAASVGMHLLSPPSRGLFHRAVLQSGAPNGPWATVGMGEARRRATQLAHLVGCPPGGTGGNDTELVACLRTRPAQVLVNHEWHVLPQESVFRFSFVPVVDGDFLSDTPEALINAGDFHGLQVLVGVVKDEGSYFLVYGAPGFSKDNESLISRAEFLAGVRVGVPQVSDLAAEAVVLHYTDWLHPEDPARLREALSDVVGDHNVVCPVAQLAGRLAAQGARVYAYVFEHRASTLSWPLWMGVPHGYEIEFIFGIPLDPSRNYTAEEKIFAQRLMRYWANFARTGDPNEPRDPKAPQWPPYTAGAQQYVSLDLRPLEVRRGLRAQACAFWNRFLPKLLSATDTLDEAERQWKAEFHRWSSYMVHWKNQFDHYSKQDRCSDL
Text: as §1

[8] = target: T3, HTR3A (Homo sapiens, UniProt P46098); assay: SAFETYscan Ion Channel HTR3A Blocker; type: cell-based
T3 sequence (P46098 24-478): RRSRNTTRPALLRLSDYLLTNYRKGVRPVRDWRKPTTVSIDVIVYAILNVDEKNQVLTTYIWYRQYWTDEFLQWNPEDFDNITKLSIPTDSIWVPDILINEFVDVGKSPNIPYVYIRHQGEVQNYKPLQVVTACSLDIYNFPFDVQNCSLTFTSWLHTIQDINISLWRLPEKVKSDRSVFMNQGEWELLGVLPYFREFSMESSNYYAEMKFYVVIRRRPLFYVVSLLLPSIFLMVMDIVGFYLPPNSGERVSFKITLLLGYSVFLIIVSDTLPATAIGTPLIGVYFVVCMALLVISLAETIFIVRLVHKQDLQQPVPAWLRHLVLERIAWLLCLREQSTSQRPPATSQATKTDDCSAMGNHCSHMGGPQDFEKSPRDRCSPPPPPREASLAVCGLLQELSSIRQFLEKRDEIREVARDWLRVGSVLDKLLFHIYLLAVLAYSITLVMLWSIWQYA
Text: as §1

[9] = target: OPRM1 (Homo sapiens, UniProt P35372); assay: SAFETYscan cAMP OPRM1 Antagonist; type: cell-based
OPRM1, sequence (P35372 whole entry): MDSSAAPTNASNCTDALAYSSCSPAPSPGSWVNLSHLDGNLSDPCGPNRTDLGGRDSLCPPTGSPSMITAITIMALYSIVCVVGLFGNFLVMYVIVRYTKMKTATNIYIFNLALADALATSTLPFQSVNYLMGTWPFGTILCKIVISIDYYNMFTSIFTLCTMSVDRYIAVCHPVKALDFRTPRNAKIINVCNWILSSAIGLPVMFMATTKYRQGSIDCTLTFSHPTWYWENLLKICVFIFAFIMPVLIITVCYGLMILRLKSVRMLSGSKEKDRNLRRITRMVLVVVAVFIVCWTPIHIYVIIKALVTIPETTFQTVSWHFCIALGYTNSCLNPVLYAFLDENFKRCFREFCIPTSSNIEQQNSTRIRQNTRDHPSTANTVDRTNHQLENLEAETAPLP
Text: Supplement jm3c00155_si_002.xlsx, sheet "SAFETYScan" | column: RC50 (uM); Hill; Max Response

[10] = target: KvLQT1/minK (Homo sapiens, UniProt P51787); assay: SAFETYscan Ion Channel KvLQT1/minK Blocker; type: cell-based
Text: as §1

[11] = target: T4, HTR1A (Homo sapiens, UniProt P08908); assay: SAFETYscan cAMP HTR1A Antagonist; type: cell-based
T4 sequence (P08908 1-422): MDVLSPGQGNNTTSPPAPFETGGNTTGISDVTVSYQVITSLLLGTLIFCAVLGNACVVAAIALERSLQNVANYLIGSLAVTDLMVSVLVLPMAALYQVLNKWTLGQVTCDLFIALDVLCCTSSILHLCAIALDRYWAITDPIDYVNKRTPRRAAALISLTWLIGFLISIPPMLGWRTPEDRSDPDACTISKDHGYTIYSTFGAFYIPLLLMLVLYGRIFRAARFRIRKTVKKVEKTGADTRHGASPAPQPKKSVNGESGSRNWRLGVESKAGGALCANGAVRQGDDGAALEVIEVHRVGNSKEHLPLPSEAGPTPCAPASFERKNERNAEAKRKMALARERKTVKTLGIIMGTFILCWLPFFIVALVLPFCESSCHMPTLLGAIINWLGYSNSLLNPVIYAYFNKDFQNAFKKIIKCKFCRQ
Text: as §1

INSR, sequence (P06213 28-1382): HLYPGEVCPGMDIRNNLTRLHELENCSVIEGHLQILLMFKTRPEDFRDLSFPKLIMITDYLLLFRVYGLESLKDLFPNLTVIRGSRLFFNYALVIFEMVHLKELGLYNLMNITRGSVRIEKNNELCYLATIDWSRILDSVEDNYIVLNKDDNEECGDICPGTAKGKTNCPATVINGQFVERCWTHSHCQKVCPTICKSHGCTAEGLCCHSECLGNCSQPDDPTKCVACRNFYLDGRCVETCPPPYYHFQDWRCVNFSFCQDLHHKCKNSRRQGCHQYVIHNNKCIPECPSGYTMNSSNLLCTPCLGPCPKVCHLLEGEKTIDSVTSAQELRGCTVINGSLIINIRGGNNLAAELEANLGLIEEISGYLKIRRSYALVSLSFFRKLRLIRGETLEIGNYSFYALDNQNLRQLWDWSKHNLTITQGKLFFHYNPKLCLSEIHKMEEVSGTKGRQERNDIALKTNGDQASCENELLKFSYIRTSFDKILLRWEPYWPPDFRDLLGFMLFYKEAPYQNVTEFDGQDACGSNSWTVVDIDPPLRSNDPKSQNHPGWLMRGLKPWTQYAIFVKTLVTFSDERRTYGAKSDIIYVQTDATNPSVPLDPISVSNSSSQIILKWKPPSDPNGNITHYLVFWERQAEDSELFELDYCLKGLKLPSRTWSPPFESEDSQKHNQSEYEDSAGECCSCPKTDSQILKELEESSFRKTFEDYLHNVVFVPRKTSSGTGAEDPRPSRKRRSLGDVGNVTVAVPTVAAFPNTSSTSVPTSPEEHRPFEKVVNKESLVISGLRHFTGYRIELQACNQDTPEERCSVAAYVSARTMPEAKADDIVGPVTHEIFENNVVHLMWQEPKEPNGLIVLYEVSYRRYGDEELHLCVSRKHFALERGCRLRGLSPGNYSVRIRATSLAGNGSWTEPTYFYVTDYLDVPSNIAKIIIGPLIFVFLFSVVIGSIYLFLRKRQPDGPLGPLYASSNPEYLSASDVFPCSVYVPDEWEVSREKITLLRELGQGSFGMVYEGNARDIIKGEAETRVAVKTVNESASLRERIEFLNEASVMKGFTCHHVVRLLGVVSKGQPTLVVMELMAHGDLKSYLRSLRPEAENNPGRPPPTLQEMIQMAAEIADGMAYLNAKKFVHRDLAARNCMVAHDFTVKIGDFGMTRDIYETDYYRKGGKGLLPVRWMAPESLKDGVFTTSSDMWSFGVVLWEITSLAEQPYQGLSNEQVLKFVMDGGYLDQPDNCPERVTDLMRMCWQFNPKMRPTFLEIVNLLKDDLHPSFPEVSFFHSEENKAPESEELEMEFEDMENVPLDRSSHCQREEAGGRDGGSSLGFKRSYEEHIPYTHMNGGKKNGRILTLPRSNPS

## Cn1c(=O)c2c(c3cc(Nc4ccnc(F)c4Cl)ccc31)N[C@@H](C1CC1)C(F)(F)CO2 [compound 17, (S)-10-((3-chloro-2-fluoropyridin-4-yl)amino)-2-cyclopropyl-3,3-difluoro-7-methyl-1,2,3,4-tetrahydro-[1,4]oxazepino[2,3-c]quinolin-6(7H)-one]
[1]; read-out: Max Response
  Emax: 0%
[1]; read-out: RC50 (IC50)
  IC50: > 10 µM
[2]; read-out: Max Response
  Emax: 2.15%
[2]; read-out: RC50 (IC50)
  IC50: > 10 µM
[3]; read-out: Max Response
  Emax: 0%
[3]; read-out: RC50 (EC50)
  EC50: > 10 µM
[4]
  IC50: > 10 µM
[4]; ADRA1A, Calcium Flux, Antagonist, read-out: Max Response
  Emax: 0%
[5]; read-out: Max Response
  Emax: 0%
[5]; read-out: RC50 (EC50)
  EC50: > 10 µM
[6]; Table S1
  BCL6 TR-FRET pIC50 mean: 8.2095
[6]; Table S1, read-out: BCL6 TR-FRET IC90 Geometric Mean
  IC90: 0.0567 µM
[6]; geometric mean of at least three replicates, read-out: BCL6 TR-FRET IC50
  IC50: 0.006 µM
[6]; supplement, read-out: BCL6 TR-FRET IC50 Geometric Mean
  IC50: 0.0062 µM
[7]; read-out: Max Response
  Emax: 9.89%
[7]; read-out: RC50 (IC50)
  IC50: > 10 µM
[8]
  IC50: > 10 µM
[8]; HTR3A, Ion Channel, Blocker, read-out: Max Response
  Emax: 0%
[9]
  IC50: 4.36 µM
[9]; OPRM1, cAMP, Antagonist
  Hill: 0.72
[9]; OPRM1, cAMP, Antagonist, read-out: Max Response
  Emax: 56.3%
[10]; read-out: Max Response
  Emax: 12.6%
[10]; read-out: RC50 (IC50)
  IC50: > 10 µM
[11]
  IC50: > 10 µM
[11]; HTR1A, cAMP, Antagonist, read-out: Max Response
  Emax: 0%
